Values after ≈ are worked out from the molar mass of the structure shown.

A short description of the data set: Toxicity in Artemia larvae. Format: organism-based. The note with it: in vivo, read-out: LD50 (the source's name).

As for `C=C1CCC[C@H]2[C@](C)(CC3=C(O)C(=O)C=C(OC)C3=O)[C@@H](C)CC[C@@]12C`, the LC50 turned out to be 4 µg/mL (≈ 11.2 µM).
For `COC1=CC(=O)C(O)=C(C[C@]2(C)[C@@H](C)CC[C@]3(C)C(C)=CCC[C@@H]23)C1=O` [ISOSPONGIAQUINONE], the LC50 was determined as 2 µg/mL (≈ 5.58 µM).

The values above are taken from ChEMBL document CHEMBL1154560, “New sesquiterpene/quinones from two sponges of the genus Hyrtios” (J Nat Prod, 2000).
